Laboratory results taken from patent US11498899B2, “Nitrone herbicides” (FMC Corporation, priority 2016, dated 2022).

Columns and labels:
[1] = system: foxtail, giant (giant foxtail, Setaria faberii); test: Test A preemergence, visual injury rating 0-100; type: in vivo; details: for Foxtail, Giant plant response rating: 0 to 100 scale (0 no effect, 100 complete control), approx. 10 days
[2] = system: ryegrass, Italian (Italian ryegrass, Lolium multiflorum); test: Test A preemergence, visual injury rating 0-100; type: in vivo; details: for Ryegrass, Italian plant response rating (0 to 100 scale): 500 g ai/ha; for Ryegrass, Italian plant response rating: 125 g ai/ha, 0 to 100 scale (0 no effect, 100 complete control), approx. 10 days
kochia (Kochia scoparia) [3] = test: Test A preemergence, visual injury rating 0-100; type: in vivo; details: for Kochia plant response rating: 0 to 100 scale (0 no effect, 100 complete control), approx. 10 days
[4] = system: pigweed (Amaranthus retroflexus); test: Test A preemergence, visual injury rating 0-100; type: in vivo; details: for Pigweed plant response rating: 0 to 100 scale (0 no effect, 100 complete control), approx. 10 days
[5] = system: ragweed (common ragweed, Ambrosia elatior); test: Test A preemergence, visual injury rating 0-100; type: in vivo; details: for Ragweed plant response rating: 0 to 100 scale (0 no effect, 100 complete control), approx. 10 days
[6] = system: barnyardgrass (Echinochloa crus-galli); test: Test B flooded paddy test, visual rating 0-100; details: Flood, 250 g ai/ha, applied to paddy water, rated after 13 to 15 days
rice (Oryza sativa) = test: Test B flooded paddy test, visual rating 0-100 (0 no effect, 100 complete control); details: Flood, 250 g ai/ha, applied to paddy water, rated after 13 to 15 days
[7] = system: foxtail, giant (giant foxtail, Setaria faberii); test: Test A postemergence, visual injury rating 0-100; type: in vivo; details: 0 to 100 scale
[8] = system: ryegrass, Italian (Italian ryegrass, Lolium multiflorum); test: Test A postemergence, visual injury rating 0-100; type: in vivo; details: 0 to 100 scale
[9] = system: barnyardgrass (Echinochloa crus-galli); test: Test A postemergence, visual injury rating 0-100; type: in vivo; details: 0 to 100 scale
[10] = system: blackgrass (Alopecurus myosuroides); test: Test A postemergence, visual injury rating 0-100; type: in vivo; details: 0 to 100 scale
[11] = system: galium (catchweed bedstraw, Galium aparine); test: Test A postemergence, visual injury rating 0-100; type: in vivo; details: 0 to 100 scale
kochia (Kochia scoparia) [12] = test: Test A postemergence, visual injury rating 0-100; type: in vivo; details: 0 to 100 scale
corn (Zea mays) = test: Test A postemergence, visual injury rating 0-100; type: in vivo; details: 0 to 100 scale
[13] = system: pigweed (Amaranthus retroflexus); test: Test A postemergence, visual injury rating 0-100; type: in vivo; details: 0 to 100 scale
[14] = system: ragweed (common ragweed, Ambrosia elatior); test: Test A postemergence, visual injury rating 0-100; type: in vivo; details: 0 to 100 scale
[15] = system: wheat (Triticum aestivum); test: Test A postemergence, visual injury rating 0-100; type: in vivo; details: 0 to 100 scale
[16] = system: ducksalad (Heteranthera limosa); test: Test B flooded paddy test, visual rating 0-100; details: Flood, 250 g ai/ha, applied to paddy water, rated after 13 to 15 days
[17] = system: barnyardgrass (Echinochloa crus-galli); test: Test A preemergence, visual injury rating 0-100 (0 no effect, 100 complete control); type: in vivo; details: for Barnyardgrass plant response rating: 0 to 100 scale (0 no effect, 100 complete control), approx. 10 days

| Compound | Foxtail, Giant plant response rating (0 to 100 scale) ([1]; 500 g ai/ha) | Ryegrass, Italian plant response rating (0 to 100 scale) [2] | Kochia plant response rating (0 to 100 scale) (kochia (Kochia scoparia) [3]; 500 g ai/ha) | Pigweed plant response rating (0 to 100 scale) ([4]; 500 g ai/ha) | Barnyardgrass plant response rating (0 to 100 scale) [6] | Rice plant response rating (0 to 100 scale) (rice (Oryza sativa)) | Foxtail, Giant plant response rating ([7]; 125 g ai/ha) | Foxtail, Giant plant response rating ([7]; 500 g ai/ha) | Ryegrass, Italian plant response rating ([8]; 125 g ai/ha) | Ryegrass, Italian plant response rating ([8]; 500 g ai/ha) | Barnyardgrass plant response rating ([9]; 125 g ai/ha) | Barnyardgrass plant response rating ([9]; 500 g ai/ha) | Blackgrass plant response rating ([10]; 125 g ai/ha) | Blackgrass plant response rating ([10]; 500 g ai/ha) | Galium plant response rating ([11]; 125 g ai/ha) | Galium plant response rating ([11]; 500 g ai/ha) | Kochia plant response rating (kochia (Kochia scoparia) [12]; 125 g ai/ha) | Kochia plant response rating (kochia (Kochia scoparia) [12]; 500 g ai/ha) | Corn plant response rating (corn (Zea mays); 125 g ai/ha) | Corn plant response rating (corn (Zea mays); 500 g ai/ha) | further results |
| --- | --- | --- | --- | --- | --- | --- | --- | --- | --- | --- | --- | --- | --- | --- | --- | --- | --- | --- | --- | --- | --- |
| CCOc1cc(OC)cc(C2CC(C)=[N+]([O-])C2C(=O)Nc2cccc(F)c2F)c1 (racemic) [Compound 116] | 90 | 80 | 0 | 0 | 0 | 0 | 60 | 90 | 0 | 80 | 50 | 80 | 80 | 80 | 0 | 20 | 0 | 20 | 30 | 60 | Foxtail, Giant plant response rating (0 to 100 scale) ([1]; 125 g ai/ha): 90; Kochia plant response rating (0 to 100 scale) (kochia (Kochia scoparia) [3]; 125 g ai/ha): 0; Pigweed plant response rating (0 to 100 scale) ([4]; 125 g ai/ha): 0; Ragweed plant response rating (0 to 100 scale) ([5]; 125 g ai/ha): 0; Ragweed plant response rating (0 to 100 scale) ([5]; 500 g ai/ha): 0; Pigweed plant response rating ([13]; 125 g ai/ha): 0; Pigweed plant response rating ([13]; 500 g ai/ha): 0; Ragweed plant response rating ([14]; 125 g ai/ha): 0; Ragweed plant response rating ([14]; 500 g ai/ha): 0; Wheat plant response rating ([15]; 125 g ai/ha): 20; Wheat plant response rating ([15]; 500 g ai/ha): 70; Ducksalad plant response rating (0 to 100 scale) [16]: 0; Barnyardgrass plant response rating (0 to 100 scale) ([17]; 125 g ai/ha): 80; Barnyardgrass plant response rating (0 to 100 scale) ([17]; 500 g ai/ha): 90 |
| CC1=[N+]([O-])C(C(=O)Nc2cccc(F)c2F)C(c2cccc(Cl)c2C)C1 (racemic) [Compound 117] | 90 | 90 | 80 | 80 | 0 | 0 | 80 | 90 | 30 | 60 | 60 | 80 | 60 | 70 | 70 | 70 | 0 | 60 | 30 | 70 | Foxtail, Giant plant response rating ([1]; 125 g ai/ha): 90; Ryegrass, Italian plant response rating [2]: 60; Kochia plant response rating (kochia (Kochia scoparia) [3]; 125 g ai/ha): 10; Pigweed plant response rating ([4]; 125 g ai/ha): 60; Ragweed plant response rating ([5]; 125 g ai/ha): 30; Ragweed plant response rating (0 to 100 scale) ([5]; 500 g ai/ha): 90; Pigweed plant response rating ([13]; 125 g ai/ha): 0; Pigweed plant response rating ([13]; 500 g ai/ha): 70; Ragweed plant response rating ([14]; 125 g ai/ha): 0; Ragweed plant response rating ([14]; 500 g ai/ha): 60; Wheat plant response rating ([15]; 125 g ai/ha): 20; Wheat plant response rating ([15]; 500 g ai/ha): 80; Ducksalad plant response rating (0 to 100 scale) [16]: 0; Barnyardgrass plant response rating ([17]; 125 g ai/ha): 90; Barnyardgrass plant response rating (0 to 100 scale) ([17]; 500 g ai/ha): 90 |
| CC1=[N+]([O-])C(C(=O)Nc2cccc(F)c2F)C(c2cccc3c2CCC3)C1 (racemic) [Compound 118] | 100 | 100 | 80 | 80 | 95 | 15 | 50 | 90 | 50 | 90 | 60 | 80 | 50 | 70 | 50 | 50 | 50 | 60 | 70 | 80 | Foxtail, Giant plant response rating ([1]; 125 g ai/ha): 90; Ryegrass, Italian plant response rating [2]: 90; Kochia plant response rating (kochia (Kochia scoparia) [3]; 125 g ai/ha): 20; Pigweed plant response rating ([4]; 125 g ai/ha): 40; Ragweed plant response rating ([5]; 125 g ai/ha): 70; Ragweed plant response rating (0 to 100 scale) ([5]; 500 g ai/ha): 90; Pigweed plant response rating ([13]; 125 g ai/ha): 0; Pigweed plant response rating ([13]; 500 g ai/ha): 30; Ragweed plant response rating ([14]; 125 g ai/ha): 0; Ragweed plant response rating ([14]; 500 g ai/ha): 70; Wheat plant response rating ([15]; 125 g ai/ha): 40; Wheat plant response rating ([15]; 500 g ai/ha): 80; Ducksalad plant response rating (0 to 100 scale) [16]: 90; Barnyardgrass plant response rating ([17]; 125 g ai/ha): 90; Barnyardgrass plant response rating (0 to 100 scale) ([17]; 500 g ai/ha): 100 |
| CC1=[N+]([O-])C(C(=O)Nc2cccc(F)c2F)C(c2ccc(=O)n(Cc3ccc(Cl)cc3)c2)C1 (racemic) [Compound 119] | 0 | 0 | 0 | 0 | 0 | 0 | 0 | 0 | 10 | 20 | 0 | 0 | 0 | 0 | 0 | 0 | 0 | 0 | 0 | 0 | Foxtail, Giant plant response rating ([1]; 125 g ai/ha): 0; Ryegrass, Italian plant response rating [2]: 0; Kochia plant response rating (kochia (Kochia scoparia) [3]; 125 g ai/ha): 0; Pigweed plant response rating ([4]; 125 g ai/ha): 0; Ragweed plant response rating ([5]; 125 g ai/ha): 0; Pigweed plant response rating ([13]; 125 g ai/ha): 0; Pigweed plant response rating ([13]; 500 g ai/ha): 0; Ragweed plant response rating ([14]; 125 g ai/ha): 0; Ragweed plant response rating ([14]; 500 g ai/ha): 0; Wheat plant response rating ([15]; 125 g ai/ha): 0; Wheat plant response rating ([15]; 500 g ai/ha): 0; Ducksalad plant response rating (0 to 100 scale) [16]: 0; Barnyardgrass plant response rating ([17]; 125 g ai/ha): 0; Barnyardgrass plant response rating (0 to 100 scale) ([17]; 500 g ai/ha): 0 |
| CCC1=[N+]([O-])C(C(=O)Nc2cccc(F)c2F)C(c2ccc(C(F)(F)F)cc2)C1 (racemic) [Compound 120] | 90 | 70 | 70 | 60 | 15 | 0 | 0 | 80 | 0 | 0 | 20 | 70 | 0 | 20 | 20 | 50 | 0 | 30 | 0 | 0 | Foxtail, Giant plant response rating ([1]; 125 g ai/ha): 70; Ryegrass, Italian plant response rating [2]: 0; Kochia plant response rating (kochia (Kochia scoparia) [3]; 125 g ai/ha): 0; Pigweed plant response rating ([4]; 125 g ai/ha): 30; Ragweed plant response rating (0 to 100 scale) ([5]; 500 g ai/ha): 80; Pigweed plant response rating ([13]; 125 g ai/ha): 10; Pigweed plant response rating ([13]; 500 g ai/ha): 20; Ragweed plant response rating ([14]; 125 g ai/ha): 0; Ragweed plant response rating ([14]; 500 g ai/ha): 40; Wheat plant response rating ([15]; 125 g ai/ha): 0; Wheat plant response rating ([15]; 500 g ai/ha): 0; Ducksalad plant response rating (0 to 100 scale) [16]: 70; Barnyardgrass plant response rating ([17]; 125 g ai/ha): 80; Barnyardgrass plant response rating (0 to 100 scale) ([17]; 500 g ai/ha): 90 |
